Entries after “also recorded” stand apart in the source; their conditions may differ.
How the values were obtained:
[1] = test system: Stearoyl-CoA Desaturase 1 (SCD1); assay: Liver SCD1 activity, SCD1 mRNA and LCFA-CoA measurements; assay type: in vivo, rat
Method: (§1) Treatment with SCD1 ASO. Five and two days before the lipoprotein secretion studies, rats received a single intra-peritoneal injection of either SCD1 or scrambled (SCR) ASO (100 mg/kg of body weight). […] In a separate set of studies, rats received intra-portal injection of either SCD1 or SCR ASO (40 mg/kg of body weight) (Gutierrez-Juarez et al., 2006) three days before the lipoprotein secretion studies.
Liver LCFA-CoA measurements. The liver was sampled and the LCFA-CoAs were extracted from the liver and measured by high-performance liquid chromatography (HPLC) as previously described (Lam et al., 2005c).
Stearoyl-CoA Desaturase 1 (SCD1) activity. CD1 activity assays were performed essentially as described (Cohen et al., 2002) using 1-[^14C]-stearoyl-CoA as a substrate. At the end of the reaction incubation long-chain acyl CoAs (LC Acyl-CoAs) were extracted and fractionated by reverse-phase HPLC as previously reported (Lam et al., 2005c). Chromatographically resolved stearoyl CoA (C18:0) and oleyl-CoA (C18:1) peaks were collected and counted in a β-scintillation counter. Protein was assayed by the bicinchoninic acid (BCA) method using a commercially available kit (Pierce Biotechnology, Rockford, Ill.) according to the manufacturer's instructions.
Gene expression. Stearoyl-CoA Desaturasel (SCD1) mRNA was measured by quantitative real-time PCR. Briefly, total RNA was extracted from either liver or fat tissue using the Trizol reagent (Invitrogen, Carlsbad, Calif.) according to the manufacturer instructions. cDNA was then synthesized from 2 μg of total RNA using the Superscript® III First-Strand kit TM? (Invitrogen, Carlsbad, Calif.). Samples of RNA in which the reverse transcriptase was omitted (no RT controls) were also included. The cDNA and no RT controls were diluted 1:20 with PCR grade water and 2 μl from each sample was used for PCR in a total volume of 20 μl. The FastStart DNA Master SYBR Green I kit (Roche Applied Science, Indianapolis, Ind.) and a LightCycler® 2 instrument (Roche Applied Science, Indianapolis, Ind.) were used in all experiments. Either 18S mRNA expression was routinely measured for normalization purposes. The primer sequences used were as follows: 5′-[…]-3′ and 5′-[…]-3′ for Scd1; and 5′-[…]-3′ and 5′-[…]-3′ for ribosomal 18S. The mRNA copy number was calculated from standard curves obtained using cloned target templates (plasmid DNA) of known copy number for each gene of interest.

mediobasal hypothalamus = assay: Intrahypothalamic (IH) infusion of glucose or DCA with pancreatic basal insulin clamp; assay type: in vivo, rat; conditions: IH, with glucose
From the text: FIG. 3 is a diagram of experimental protocols (Panel (a)) and graphs of results of those experiments utilizing intrahypothalamic (IH) infusions of glucose.
FIG. 4 is a schematic and graphs of experimental results showing the effect of dichloroacetate (DCA), an inhibitor of pyruvate dehydrogenase kinase, having the effect of activating pyruvate dehydrogenase (PDH). The schematic of Panel (a) illustrates the PDH activation effect of DCA in the context of glucose metabolism, the TCA cycle, and nervous system cells.
We have localized the effect of glucose on liver glucose production to the mediobasal hypothalamus. This was accomplished using bilateral intraparenchymal (rather than ICY) delivery of both glucose and the KATP blocker GLI.

male Sprague-Dawley rats = assay: ICV infusion: plasma triglycerides and metabolites under basal and pancreatic clamp conditions; assay type: in vivo, rat
From the text: Animal preparation. We studied 10-week-old male Sprague-Dawley rats. Rats underwent stereotaxic surgery to indwell single catheters in the third cerebral ventricle {intracerebroventricular (ICV)(Obici et al., 2001) or bilateral catheters into the mediobasal hypothalamus (Lam et al., 2005c). One week later, we placed indwelling catheters in the internal jugular vein and carotid artery for sampling and infusion during the in vivo experiments (Obici et al., 2001). Recovery from surgery was monitored by measuring daily food intake and weight gain for 4-5 days after surgery.
(§2) Infusion protocols. The in vivo infusion experiments lasted a total of 360 min, and the experiments were carried out in rats that had their food removed ˜5 h before the experiments. Thus, at the time of the experiment, the rats are in post-absorptive state since their stomach should be completely emptied by 5 h fasting. […] This ICV glucose protocol physiologically elevate hypothalamic glucose concentration by ˜70% as previously described (Lam et al., 2005b) and is similar to that induced by a doubling of the circulating glucose levels (Lam et al., 2005b). During the ICV infusions, we monitored the plasma metabolite levels under pre-infused (0 min), basal (180-240 min) and pancreatic clamp (300-360 min) conditions. […] A basal insulin-pancreatic clamp was performed in the final 2 h (240-360 min) of the study as previously described (Lam et al., 2005b). In brief, a continuous infusion of insulin (1 mU/kg.min) and somatostatin (3 μg/kg.min) was administered, and a variable infusion of a 25% glucose solution was started and periodically adjusted to clamp and maintain the plasma glucose concentration at ˜8 mM. […] To examine the time-dependent effects of ICY glucose on plasma triglycerides, ICY (5 μl/h) 2 mM D-glucose or mannitol was administrated for 210 min and plasma triglyceride levels were monitored at 0, 20, 60, 120, 180, 210 min. […] Plasma triglycerides were monitored under basal, pancreatic clamp and tyloxapol-treated conditions. At the end of the infusion experiments, rats were anesthetized and tissue samples were freeze-clamped in situ with aluminum tongs pre-cooled in liquid nitrogen. All tissue samples were stored at −80° C. for subsequent analysis.
Biochemical analyses. Plasma glucose concentrations were measured by the glucose oxidase method (Glucose Analyzer II, Beckman Instruments, Inc., Fullerton, Calif.). […] FFA concentrations were determined by an enzyme assay in accordance with the manufacturer's specifications (Waco Pure Chemical Industries. Osaka. Japan). Plasma insulin concentrations (with rat and porcine insulin standards) were measured by radioimmunoassay (RIA). Plasma adiponectin concentrations were measured by RIA (Linco Inc., Austin, Tex., USA). Liver triglycerides were measured as described (Muse et al., 2004).
Calculations. Statistical analysis was done by unpaired Student's t test or analysis of variance as appropriate. Data are presented as means±SEM. All values were collapsed into a single value for each animal prior to the calculation of mean. The time period 180-240 min was averaged for the basal and the time period 300-360 min was averaged for the clamp conditions.

hepatic VLDL secretion = assay: Lipoprotein (VLDL) secretion studies with tyloxapol; NMR particle size; assay type: in vivo, rat
Method: Lipoproteins secretion and particles concentration and size measurements. Tyloxapol (600 mg/kg; ˜1 min) was intravenously injected to inhibit endogenous lipoprotein lipase. This high dose of tyloxapol ensured complete inhibition of triglyceride clearance during VLDL secretion studies. Plasma samples were taken every 30 min for triglycerides analysis and for lipoprotein profiling. Plasma VLDL particles concentration and size were determined by nuclear magnetic resonance spectroscopy (lipoprofile-II test) at Liposcience as previously described (Otvos et al., 1991; 1992). This NMR lipoprofile-II test is based on the assumption that each plasma lipoprotein particle of a particular size gives its own characteristic lipid NMR signal. The intensity of the signal is also in proportion to the concentration of the particle. The diameter range for large, medium and small VLDL is >60 nm, 35-60 nm, and 27-35 nm, respectively.
Selective hepatic branch vagotomy. The surgeries were performed as described (Lam et al., 2005c).
as §1
Portal oleate infusion. Chronic portal catheter was implanted and 7 days were allowed for rat recovery. Oleic acid (45 mM; dissolved in 45% HBP) was infused at a rate of 40 μl/h for 2.5 h (1 h before the 90 min lipoprotein secretion studies). This dose enabled the reconstitution of hepatic oleyl-CoA levels back to normal during portal SCD1 ASO (FIG. 11c) or ICV glucose studies (FIG. 11d).

conscious rats [2] = assay: Circulating lactate infusion with central LDH inhibitor or KATP blocker: glucose kinetics during pancreatic clamps
conscious rats [3] = assay: ICV glucose or lactate infusion with pancreatic basal insulin clamp: plasma glucose and liver glucose production; assay type: in vivo, rat; conditions: for effect of ICV co-infused LDH inhibitor or KATP blocker on the effects of ICV glucose or lactate on plasma glucose and GP: ICV co-infusion
From the text: We hypothesize that the hypothalamic sensing of glucose-derived pyruvate is a novel regulator of endogenous glucose production (GP). […] We propose that an increase in neuronal pyruvate levels is a hypothalamic signal of nutrient availability.
Long chain fatty acids in the brain decrease glucose production (GP) by the liver via activation of hypothalamus ATP-sensitive (KATP) channels. Here we tested whether (A) direct administration of glucose in the third cerebral ventricle can alter glucose production by the liver, and (B) whether this effect requires its metabolism in the TCA cycle.

conscious rats [4] = assay: Intravenous lactate infusion with or without MBH oxamate: plasma TG and hepatic TG-VLDL production; assay type: in vivo, rat; conditions: oxamate within the mediobasal hypothalamus prior to the i.v. lactate infusion
Method: as §2
VLDL are decreased in the hours following an acute bout of exercise. […] To investigate the mechanism by which lactate lowers plasma TG levels, the rate of production of hepatic TG-enriched VLDL was measured.

In the case of `COc1ccc(Cl)cc1C(=O)NCCc1ccc(S(=O)(=O)NC(=O)NC2CCCCC2)cc1` [glibenclamide, reference compound], the “effect of ICV co-infused inhibitor on the decrease of hepatic SCD1 mRNA and activity by ICV glucose” value ([1]; ICV co-infusion with glucose) is reported as “abolished”, the “effect of KATP blocker on the effects of IH glucose” value (mediobasal hypothalamus) is reported as “prevented” and the “effect of ICV co-infused inhibitor on the plasma triglyceride-lowering effects of ICV glucose or lactate” value (male Sprague-Dawley rats; ICV co-infusion (oxamate 50 mM, glibenclamide 100 μM)) is reported as “negated the effects of both ICV glucose and lactate on plasma triglycerides; also recorded: abolishes the plasma triglyceride-lowering effects of glucose; also recorded: abolished the plasma triglyceride-lowering effects of lactate”. For the same compound, the “plasma triglyceride levels, inhibitor per se” value (male Sprague-Dawley rats; ICV inhibitor alone) was “did not per se alter the levels of plasma triglycerides”, the “effect of central co-infusion of inhibitor on suppression of VLDL-triglyceride secretion by ICV glucose” value (hepatic VLDL secretion; central co-infusion with glucose) was “abolished” and the “glucose infusion rate to maintain euglycemia” value (conscious rats [2]; ICV inhibitor infused with IV lactate) was “decreased glucose infusion rate”. For the same compound, the glucose production (conscious rats [2]; central inhibitor infused with circulating lactate infusion) was “increase in glucose production”, the “effect of ICV co-infused LDH inhibitor or KATP blocker on the effects of ICV glucose or lactate on plasma glucose and GP” value (conscious rats [3]) was “inhibited” and the “effect of ICV co-infused LDH inhibitor or KATP blocker on the effects of ICV glucose or lactate on plasma glucose and GP” value (conscious rats [3]; listed as GLI) was “inhibited”. The “effect of ICV co-infused LDH inhibitor or KATP blocker on the effects of ICV glucose or lactate on plasma glucose and GP” value (conscious rats [3]; listed as sulfonylurea) was “completely abolished the effects of ICV glucose and lactate on plasma glucose and GP”.
`CCCCCCCC/C=C\CCCCCCCC(=O)O` [oleic acid] was tested, and the “hepatic oleyl-CoA” value ([1]; portal infusion of oleic acid during ICV glucose or SCD1 deficiency) was “restores hepatic oleyl-CoA to control levels” and the “effect of portal oleic acid infusion on VLDL secretion” value (hepatic VLDL secretion; portal infusion during ICV glucose or SCD1 ASO) was “negates the effects of both central glucose and SCD1 deficiency on VLDL secretion; also recorded: sufficient to negate the effect of SCD1 deficiency on VLDL secretion”.
With `NC(=O)C(=O)O` [oxamate, reference compound] the “hepatic TG-enriched VLDL production” value (conscious rats [4]) was 0.056 ± 0.002 mM/min, the “plasma TG levels” value (conscious rats [4]) was 0.44 ± 0.12 mM and the “GP (glucose production)” value (conscious rats [3]; ICV oxamate (50 mM) with ICV glucose) was 11.9 ± 1.0 mg/kg/min. The GP (glucose production) (conscious rats [3]; ICV oxamate with ICV lactate) was 11.3 ± 0.6 mg/kg/min and the plasma glucose (conscious rats [3]; ICV oxamate with ICV lactate) was 144 ± 1 mg/dL.
